Experimental data published in ChEMBL document CHEMBL1138611, “Oxadiazolylindazole sodium channel modulators are neuroprotective toward hippocampal neurones” (J Med Chem, 2009).

Legend:
Hippocampus = assay: Neuroprotective activity in Wistar rat hippocampal slices assessed as ATP concentration at 50 uM relative to tetrodotoxin; assay type: functional
[1] = Inhibition of voltage-gated sodium channel in Wistar rat forebrain synaptosomes assessed as inhibition of [14C]guanidium ion flux; assay type: subcellular, Brain

Compound | Activity (Hippocampus) [%] | IC50 [1] [µM]
CC(C)(C)OC(=O)NCc1noc(-c2nn(Cc3ccccc3Cl)c3ccccc23)n1 | 9 | > 300
Cc1nc(-c2ccc(Cn3nc(-c4nc(CN)no4)c4ccccc43)cc2)no1 | – | 58
O=C(NCc1noc(-c2nn(Cc3ccccc3)c3ccccc23)n1)OCc1ccccc1 | 12 | 5
O=S(=O)(NCc1noc(-c2nn(Cc3ccccc3)c3ccccc23)n1)c1ccccc1 | 20 | 5
NCc1noc(-c2nn(Cc3ccc4ccccc4c3)c3ccccc23)n1 | 11 | 20
NCc1noc(-c2nn(Cc3cccc(C(F)(F)F)c3)c3ccccc23)n1 | 58 | 26
Cc1cccc(Cn2nc3ccccc3c2-c2nc(CN)no2)c1 | 37 | 26
CC(C)(C)OC(=O)NCc1noc(-c2nn(CCOc3ccccc3)c3ccccc23)n1 | 8 | 6
CC(C)(C)OC(=O)NCc1noc(-c2nn(CCc3ccccc3)c3ccccc23)n1 | 0 | 5
Cc1ccccc1Cn1nc(-c2nc(CN)no2)c2ccccc21 | 46 | 26
CC(C)(C)OC(=O)NCc1noc(-c2nn(Cc3ccccc3)c3ccccc23)n1 | 19 | 5
NCc1noc(-c2nn(Cc3ccc4c(c3)OCO4)c3ccccc23)n1 | 44 | 30
CC(C)(C)OC(=O)NCc1noc(-c2nn(Cc3cc(F)cc(F)c3F)c3ccccc23)n1 | 0 | 1
COc1ccc(Cn2nc(-c3nc(CNC(=O)OC(C)(C)C)no3)c3ccccc32)cc1 | 0 | 4
COc1ccc(Cn2nc(-c3nc(CN)no3)c3ccccc32)cc1 | 35 | 38
Cc1ccccc1Cn1nc(-c2nc(CNC(=O)OC(C)(C)C)no2)c2ccccc21 | 0 | 3

Compound | Activity (Hippocampus) [%] | IC50 [1] [µM]
CC(C)(C)OC(=O)NCc1noc(-c2c3ccccc3nn2Cc2ccc3c(c2)OCO3)n1 | 0 | 3
NCc1noc(-c2nn(CCOc3ccccc3)c3ccccc23)n1 | 40 | 30
CC(C)(C)OC(=O)NCc1noc(-c2c3ccccc3nn2Cc2cccc(Cl)c2)n1 | 0 | 4
Cc1ccc(Cn2nc(-c3nc(CN)no3)c3ccccc32)cc1 | 34 | 17
Cc1cc(C)cc(Cn2nc(-c3nc(CNC(=O)OC(C)(C)C)no3)c3ccccc32)c1 | 0 | 4
CC(C)(C)OC(=O)NCc1noc(-c2nn(Cc3cccc(Cl)c3)c3ccccc23)n1 | 12 | 4
COc1cc(Cn2nc(-c3nc(CNC(=O)OC(C)(C)C)no3)c3ccccc32)cc(OC)c1OC | 0 | 195
NCc1noc(-c2nn(Cc3cccc(OC(F)(F)F)c3)c3ccccc23)n1 | 33 | 26
Cc1cc(C)cc(Cn2nc3ccccc3c2-c2nc(CN)no2)c1 | 35 | 14
Cc1cccc(Cn2nc3ccccc3c2-c2nc(CNC(=O)OC(C)(C)C)no2)c1 | 0 | 151
CC(C)(C)OC(=O)NCc1noc(-c2nn(Cc3cccc(C(F)(F)F)c3)c3ccccc23)n1 | 3 | 8
CC(C)(C)OC(=O)NCc1noc(-c2nn(Cc3ccc4ccccc4c3)c3ccccc23)n1 | 0 | 0.4
CC(C)(C)OC(=O)NCc1noc(-c2c3ccccc3nn2CCc2ccccc2)n1 | 0 | 85
Cc1cc(C)cc(Cn2nc3ccccc3c2-c2nc(CNC(=O)OC(C)(C)C)no2)c1 | 0 | 12
CC(C)(C)OC(=O)NCc1noc(-c2c3ccccc3nn2Cc2ccccc2)n1 | 25 | 174
Cc1nc(-c2ccc(Cn3nc(-c4nc(CNC(=O)OC(C)(C)C)no4)c4ccccc43)cc2)no1 | – | 1
